Where two headings read alike, the source gives them in different places.
Biological target: T1, human GABAA receptor (α1β2γ2) (Homo sapiens, UniProt P14867+P18507+P47870)
T1 construct: expressed in transfected cells
Experiment: GABA Patch Clamp Assay (agonist, antagonist, PAM modes)
Assay type: cell-based
From the text: 151 GABA Patch Clamp Assay
152 Compound effects on the human GABAA recepto r (α1β2γ2), stably express ed in human embryonic
153 kidney (HEK) cells, were examined in three modes of action: agonist, antagonist and positive
154 allosteric modulation (PAM) modes. Chloride currents evoked by the activation of the GABAA
155 recepto r wer e reco rded in the whole- cell patch clamp configuration with the automated Qube384®
156 platform (Sophion Bioscience A/S, Baltorpvej, Denmark). The intracellular solution contained (in
157 mM): CsF 90, CsCl 50, MgCl2 2 EGTA 10, HEPES 10, pH adjusted to 7.2 with CsOH. The
158 extracellular solution contained (in mM): NaCl 138, KCl 5.3, CaCl2 5, MgCl2 0.49, HEPES 10,
160 osmolarity of the internal and external solutions were adjusted with sucrose to 300 mOsm and 305
162 Compounds were dissolved and initially diluted in dimethyl sulfoxide (DMSO), with a final
163 dilution in external sol ution to generate final working concent rations. The final DMSO
164 concentration in all experiments was 0.33% (v/v).
165 Cells and solutions were loaded into the Qube384 10X Qchip (10 recording wells per well, 384
166 wells per QChip). After whole-cell con figuration was achiev ed by negativ e pressure pulse, cells
167 were maintained at a holding potential of - 80 mV throughout the experiment. To avoid
168 desensitization and current rundown due to persistent activation of GABAA, a “stacked pipette”
169 approach was utilized to ensure only a brief exposure of the cells to GABA-containing solutions.
170 In this approach, the perfusion pipettes drew from two liquid sources, first from extracellular
171 solution (14 µL), and next from a GABA-containing solution (7 µL). When dispensed into the
173 extracellular solution. At the start of the experiment, a baseline GABAA cu rrent was established
174 for each well in response to activation by 40 µM GABA. Each subsequent test condition was
175 normalized ag ainst this baseline GABA cu rrent on a per w ell basis.
176 Agonist effects were measured by recording the current evoked by the test article in the absen ce
177 of GABA. Agonism (%) was calculated relative to the current produced by 40 µM GABA for
178 each well: [% Agonism = (Itest article / I 40µM GABA) * 100%].
179 Antagonist effects of test article were examined i n the presence of 40 µM GABA following a 4
180 min incubation in test article. Antagonism was calculated relative to the current produced by 40 […]
182 allosteric modulation (%) by test article was detected when current was enhanced relative to the […]
184 EC50/ IC 50 values were calculated by fitting concentration response curve data to a 4- p aram eter […]
190 determined using a four-parameter logistic fit. […]
193 response. An apparent KB value for antagonist activity was calculated using the following […]

T1 sequence (P14867 28-456): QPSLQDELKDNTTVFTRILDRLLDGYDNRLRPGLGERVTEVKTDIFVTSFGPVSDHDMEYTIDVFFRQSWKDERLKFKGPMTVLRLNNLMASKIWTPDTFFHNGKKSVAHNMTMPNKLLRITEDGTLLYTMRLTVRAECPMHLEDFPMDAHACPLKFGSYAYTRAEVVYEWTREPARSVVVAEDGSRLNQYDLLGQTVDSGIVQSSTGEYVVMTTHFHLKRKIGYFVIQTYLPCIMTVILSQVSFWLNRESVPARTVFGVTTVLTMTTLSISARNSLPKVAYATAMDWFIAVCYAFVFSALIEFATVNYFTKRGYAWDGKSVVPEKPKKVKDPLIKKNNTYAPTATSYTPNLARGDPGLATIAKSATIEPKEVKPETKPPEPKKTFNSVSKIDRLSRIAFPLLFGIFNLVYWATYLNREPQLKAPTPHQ
T1 sequence (P47870 25-512 limits assumed): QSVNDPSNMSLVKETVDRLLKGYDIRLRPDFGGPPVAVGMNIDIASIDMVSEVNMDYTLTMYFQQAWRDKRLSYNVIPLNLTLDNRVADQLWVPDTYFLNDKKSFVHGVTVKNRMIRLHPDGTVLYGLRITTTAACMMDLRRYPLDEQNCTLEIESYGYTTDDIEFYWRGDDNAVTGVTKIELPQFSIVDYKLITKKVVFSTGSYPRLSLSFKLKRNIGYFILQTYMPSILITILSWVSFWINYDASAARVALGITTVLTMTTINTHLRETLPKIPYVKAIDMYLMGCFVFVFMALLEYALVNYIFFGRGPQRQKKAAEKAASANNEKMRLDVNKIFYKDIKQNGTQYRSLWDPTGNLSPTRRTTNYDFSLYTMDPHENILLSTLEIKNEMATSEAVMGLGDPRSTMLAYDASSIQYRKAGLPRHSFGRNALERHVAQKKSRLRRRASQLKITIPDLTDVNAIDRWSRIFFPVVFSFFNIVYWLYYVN
T1 sequence (P18507 40-475): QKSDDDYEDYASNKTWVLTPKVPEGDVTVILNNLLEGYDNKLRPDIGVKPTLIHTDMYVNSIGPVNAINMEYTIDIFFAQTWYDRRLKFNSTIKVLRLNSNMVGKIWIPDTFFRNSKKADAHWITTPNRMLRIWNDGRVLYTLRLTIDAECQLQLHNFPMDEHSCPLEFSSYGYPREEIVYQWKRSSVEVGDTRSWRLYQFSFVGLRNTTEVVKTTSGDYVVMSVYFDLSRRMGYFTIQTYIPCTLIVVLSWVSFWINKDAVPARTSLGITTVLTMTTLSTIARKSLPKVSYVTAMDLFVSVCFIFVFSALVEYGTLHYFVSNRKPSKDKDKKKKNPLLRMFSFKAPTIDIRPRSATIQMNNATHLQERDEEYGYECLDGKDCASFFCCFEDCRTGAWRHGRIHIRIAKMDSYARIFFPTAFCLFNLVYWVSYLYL

CCOc1cc(C)nc(N(CCOC)S(=O)(=O)c2ccc(NCc3c(F)cncc3F)nc2OC)n1 [Compound 1]
EC50: > 100 µM | %Activation@10μM (GABAa, 10μM): 0% | inhibition at 10 µM (GABAa, 10μM): 4% | EC50 (read-out: PAM EC50, GABAa, positive allosteric modulation mode): > 100 µM

Source: publication PMC10517971, “An inverse agonist of orphan receptor GPR61 acts by a G protein-competitive allosteric mechanism” (Nature Communications, 2023)
